The NIST ThermoML archive (doi:10.1021/je060107n)
Numbers after ± are expanded uncertainties.

Test: mn = molality of the nth substance listed, in mol/kg
Details: 101 kPa, Liquid; for viscosity: Capillary tube (Ostwald / Ubbelohde) method; for speed of sound: Linear variable-path acoustic interferometer

CC(=O)[O-].CC(=O)[O-].[Mg+2] [magnesium acetate] + O
Details	speed of sound, 273.15 K [m/s]	speed of sound, 278.15 K [m/s]	speed of sound, 283.15 K [m/s]	speed of sound, 288.15 K [m/s]	viscosity, 273.15 K [mPa·s]	viscosity, 278.15 K [mPa·s]	viscosity, 283.15 K [mPa·s]	viscosity, 288.15 K [mPa·s]	viscosity, 293.15 K [mPa·s]
m1 = 0.0414	1411.1 ± 1.8	1433.9 ± 1.9	1453.9 ± 1.9	1471.7 ± 1.9	1.895 ± 0.026	1.603 ± 0.022	1.374 ± 0.019	1.196 ± 0.016	1.052 ± 0.014
m1 = 0.0831	1421.7 ± 1.9	1443.6 ± 1.9	1464.2 ± 1.9	1481.5 ± 1.9	1.974 ± 0.027	1.663 ± 0.023	1.423 ± 0.02	1.238 ± 0.017	1.089 ± 0.015
m1 = 0.1671	1435.8 ± 1.9	1458.6 ± 1.9	1477 ± 1.9	1494.1 ± 1.9	2.142 ± 0.03	1.805 ± 0.025	1.54 ± 0.021	1.335 ± 0.018	1.17 ± 0.016
m1 = 0.4247	1486.1 ± 1.9	1504.5 ± 1.9	1522.7 ± 1.9	1535.1 ± 1.9	2.763 ± 0.04	2.301 ± 0.033	1.954 ± 0.027	1.677 ± 0.023	1.461 ± 0.02
m1 = 0.646	1523.6 ± 1.9	1539.4 ± 1.9	1553.8 ± 1.9	1566.5 ± 1.9	3.52 ± 0.05	2.887 ± 0.042	2.444 ± 0.034	2.072 ± 0.029	1.788 ± 0.024
m1 = 0.8751	1563.5 ± 1.9	1571.6 ± 1.9	1584.2 ± 1.9	1601.1 ± 1.9	4.302 ± 0.064	3.533 ± 0.051	2.956 ± 0.042	2.499 ± 0.035	2.15 ± 0.029
m1 = 1.106	1599.6 ± 1.9	1611.8 ± 1.9	1622.1 ± 1.9	1631.4 ± 1.9	5.537 ± 0.081	4.511 ± 0.066	3.725 ± 0.053	3.138 ± 0.044	2.678 ± 0.037
m1 = 1.354	1633.9 ± 1.9	1644.1 ± 1.9	1651.4 ± 2	1659.4 ± 2	7.125 ± 0.093	5.709 ± 0.085	4.687 ± 0.068	3.895 ± 0.055	3.294 ± 0.046
m1 = 1.608	1670.3 ± 2	1679.6 ± 2	1685.9 ± 2	1692.8 ± 2	7.125 ± 0.15	5.709 ± 0.085	4.687 ± 0.068	3.895 ± 0.055	3.294 ± 0.046
m1 = 1.866	1705.9 ± 2	1713 ± 2	1718.2 ± 2	1722.3 ± 2	12.12 ± 0.17	9.522 ± 0.15	7.615 ± 0.11	6.192 ± 0.09	5.143 ± 0.073
m1 = 2.134	1742.2 ± 2	1746.8 ± 2	1750.4 ± 2	1752.7 ± 2	16.35 ± 0.27	12.57 ± 0.2	9.905 ± 0.15	8.005 ± 0.12	6.573 ± 0.095
m1 = 2.411	1777.1 ± 2	1780.1 ± 2	1781.4 ± 2	1782.9 ± 2	23.36 ± 0.36	17.59 ± 0.29	13.67 ± 0.21	10.8 ± 0.16	8.745 ± 0.13
m1 = 2.622	1797.1 ± 2	1799.2 ± 2	1799.1 ± 2	1799.1 ± 2	28.17 ± 0.48	21.2 ± 0.35	16.25 ± 0.26	12.79 ± 0.2	10.25 ± 0.15
m1 = 3.043	1840.9 ± 2.1	1839.8 ± 2.1	1838.2 ± 2.1	1835.6 ± 2.1	45.46 ± 0.99	33.22 ± 0.58	24.92 ± 0.41	19.07 ± 0.3	–
m1 = 3.437	1885.2 ± 2.1	1881.6 ± 2.1	1877.4 ± 2.1	1872.2 ± 2.1	85.35 ± 1.8	59.47 ± 1.1	43.12 ± 0.76	31.95 ± 0.54	–
m1 = 3.819	1910.1 ± 2.1	1903.6 ± 2.1	1897.9 ± 2.1	1891.9 ± 2.1	–	–	–	–	–
m1 = 4.001	–	–	–	–	167.7 ± 5.4	110.6 ± 2.6	77.03 ± 1.5	55.77 ± 0.97	–
m1 = 4.547	1953.7 ± 2.2	1945.3 ± 2.2	1936.1 ± 2.2	1927.4 ± 2.1	–	–	–	–	–
m1 = 4.563	–	–	–	–	374.7 ± 14	234.4 ± 7.8	153.7 ± 4.1	105.5 ± 2.3	–
m1 = 4.929	–	–	–	–	–	–	208.4 ± 5.9	140.3 ± 3.6	–
m1 = 5.165	–	–	1964.1 ± 2.2	1953.3 ± 2.2	–	–	–	–	–
